{"source": "PubChem BioAssay (NCI)", "experiment_in_all_cases": "NCI anticancer screen, dose series, 48 h", "key": {"786-0 renal": {"tested_on": "786-0 renal"}, "A498 renal": {"tested_on": "A498 renal"}, "A549 NSCLC": {"tested_on": "A549 NSCLC"}, "ACHN renal": {"tested_on": "ACHN renal"}, "BT-549 breast": {"tested_on": "BT-549 breast"}, "CAKI-1 renal": {"tested_on": "CAKI-1 renal"}, "CCRF-CEM leukemia": {"tested_on": "CCRF-CEM leukemia"}, "COLO 205 colon": {"tested_on": "COLO 205 colon"}, "DU-145 prostate": {"tested_on": "DU-145 prostate"}, "EKVX NSCLC": {"tested_on": "EKVX NSCLC"}, "HCC-2998 colon": {"tested_on": "HCC-2998 colon"}, "HCT-116 colon": {"tested_on": "HCT-116 colon"}, "HCT-15 colon": {"tested_on": "HCT-15 colon"}, "HL-60(TB) leukemia": {"tested_on": "HL-60(TB) leukemia"}, "HOP-62 NSCLC": {"tested_on": "HOP-62 NSCLC"}, "HOP-92 NSCLC": {"tested_on": "HOP-92 NSCLC"}, "HS 578T breast": {"tested_on": "HS 578T breast"}, "HT29 colon": {"tested_on": "HT29 colon"}, "IGROV1 ovarian": {"tested_on": "IGROV1 ovarian"}, "K-562 leukemia": {"tested_on": "K-562 leukemia"}, "KM12 colon": {"tested_on": "KM12 colon"}, "LOX IMVI melanoma": {"tested_on": "LOX IMVI melanoma"}, "M14 melanoma": {"tested_on": "M14 melanoma"}, "MALME-3M melanoma": {"tested_on": "MALME-3M melanoma"}, "MCF7 breast": {"tested_on": "MCF7 breast"}, "MDA-MB-231 breast": {"tested_on": "MDA-MB-231 breast"}, "MDA-MB-435": {"tested_on": "MDA-MB-435"}, "MOLT-4 leukemia": {"tested_on": "MOLT-4 leukemia"}, "NCI-H226 lung": {"tested_on": "NCI-H226 lung"}}, "note": "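Assay format: 96-well plates, 48-hour exposure. Here, GI50 denotes the concentration required for 50% inhibition of growth. TGI: concentration producing complete growth inhibition.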", "data": [{"smiles": "Cc1nc(Sc2nc3ccc([N+](=O)[O-])cc3s2)sc1C", "values": [{"measurement": "GI50", "setting": "786-0 renal", "result": 1780, "unit": "nM"}, {"measurement": "TGI", "setting": "786-0 renal", "result": 6.1, "unit": "µM"}, {"measurement": "GI50", "setting": "A498 renal", "result": 1590, "unit": "nM"}, {"measurement": "TGI", "setting": "A498 renal", "result": 9.23, "unit": "µM"}, {"measurement": "GI50", "setting": "A549 NSCLC", "result": 10.4, "unit": "µM"}, {"measurement": "TGI", "setting": "A549 NSCLC", "result": 22.7, "unit": "µM"}, {"measurement": "GI50", "setting": "ACHN renal", "result": 1610, "unit": "nM"}, {"measurement": "TGI", "setting": "ACHN renal", "result": 3.81, "unit": "µM"}, {"measurement": "GI50", "setting": "BT-549 breast", "result": 989, "unit": "nM"}, {"measurement": "TGI", "setting": "BT-549 breast", "result": 2850, "unit": "nM"}, {"measurement": "GI50", "setting": "CAKI-1 renal", "result": 1900, "unit": "nM"}, {"measurement": "TGI", "setting": "CAKI-1 renal", "result": 8.03, "unit": "µM"}, {"measurement": "GI50", "setting": "CCRF-CEM leukemia", "result": 477, "unit": "nM"}, {"measurement": "TGI", "setting": "CCRF-CEM leukemia", "result": 6.18, "unit": "µM"}, {"measurement": "GI50", "setting": "COLO 205 colon", "result": 1930, "unit": "nM"}, {"measurement": "TGI", "setting": "COLO 205 colon", "result": 6.07, "unit": "µM"}, {"measurement": "GI50", "setting": "DU-145 prostate", "result": 3.99, "unit": "µM"}, {"measurement": "TGI", "setting": "DU-145 prostate", "result": 15.4, "unit": "µM"}, {"measurement": "GI50", "setting": "EKVX NSCLC", "result": 11.6, "unit": "µM"}, {"measurement": "TGI", "setting": "EKVX NSCLC", "result": 24.2, "unit": "µM"}, {"measurement": "GI50", "setting": "HCC-2998 colon", "result": 12.5, "unit": "µM"}, {"measurement": "TGI", "setting": "HCC-2998 colon", "result": 25.2, "unit": "µM"}, {"measurement": "GI50", "setting": "HCT-116 colon", "result": 1060, "unit": "nM"}, {"measurement": "TGI", "setting": "HCT-116 colon", "result": 2490, "unit": "nM"}, {"measurement": "GI50", "setting": "HCT-15 colon", "result": 731, "unit": "nM"}, {"measurement": "TGI", "setting": "HCT-15 colon", "result": 3.51, "unit": "µM"}, {"measurement": "GI50", "setting": "HL-60(TB) leukemia", "result": 1680, "unit": "nM"}, {"measurement": "TGI", "setting": "HL-60(TB) leukemia", "result": 4.6, "unit": "µM"}, {"measurement": "GI50", "setting": "HOP-62 NSCLC", "result": 3.81, "unit": "µM"}, {"measurement": "TGI", "setting": "HOP-62 NSCLC", "result": 14.2, "unit": "µM"}, {"measurement": "GI50", "setting": "HOP-92 NSCLC", "result": 2540, "unit": "nM"}, {"measurement": "TGI", "setting": "HOP-92 NSCLC", "result": 7.55, "unit": "µM"}, {"measurement": "GI50", "setting": "HS 578T breast", "result": 3.03, "unit": "µM"}, {"measurement": "TGI", "setting": "HS 578T breast", "result": 16.4, "unit": "µM"}, {"measurement": "GI50", "setting": "HT29 colon", "result": 1640, "unit": "nM"}, {"measurement": "TGI", "setting": "HT29 colon", "result": 4.23, "unit": "µM"}, {"measurement": "GI50", "setting": "IGROV1 ovarian", "result": 3000, "unit": "nM"}, {"measurement": "TGI", "setting": "IGROV1 ovarian", "result": 14.8, "unit": "µM"}, {"measurement": "GI50", "setting": "K-562 leukemia", "result": 429, "unit": "nM"}, {"measurement": "TGI", "setting": "K-562 leukemia", "result": 8.97, "unit": "µM"}, {"measurement": "GI50", "setting": "KM12 colon", "result": 3.89, "unit": "µM"}, {"measurement": "TGI", "setting": "KM12 colon", "result": 14.6, "unit": "µM"}, {"measurement": "GI50", "setting": "LOX IMVI melanoma", "result": 221, "unit": "nM"}, {"measurement": "TGI", "setting": "LOX IMVI melanoma", "result": 932, "unit": "nM"}, {"measurement": "GI50", "setting": "M14 melanoma", "result": 1820, "unit": "nM"}, {"measurement": "TGI", "setting": "M14 melanoma", "result": 4.14, "unit": "µM"}, {"measurement": "GI50", "setting": "MALME-3M melanoma", "result": 1400, "unit": "nM"}, {"measurement": "TGI", "setting": "MALME-3M melanoma", "result": 3.9, "unit": "µM"}, {"measurement": "GI50", "setting": "MCF7 breast", "result": 705, "unit": "nM"}, {"measurement": "TGI", "setting": "MCF7 breast", "result": 10.1, "unit": "µM"}, {"measurement": "GI50", "setting": "MDA-MB-231 breast", "result": 1840, "unit": "nM"}, {"measurement": "TGI", "setting": "MDA-MB-231 breast", "result": 11, "unit": "µM"}, {"measurement": "GI50", "setting": "MDA-MB-435", "result": 1780, "unit": "nM"}, {"measurement": "TGI", "setting": "MDA-MB-435", "result": 11.1, "unit": "µM"}, {"measurement": "GI50", "setting": "MOLT-4 leukemia", "result": 288, "unit": "nM"}, {"measurement": "TGI", "setting": "MOLT-4 leukemia", "result": 3.45, "unit": "µM"}, {"measurement": "GI50", "setting": "NCI-H226 lung", "result": 1070, "unit": "nM"}]}]}
